Values joined by “and” are separate entries in the source; they are usually repeats but may differ in a detail not shown here. Equal values may be shown once.

One test deals with centrosomes. Put plainly: Distance between two centrosomes by fluorescence microscopy. It counts as cell-based. The note with it: 3.0 μmol/L CTR-17. The method, then: and Lee, 2008). The reversibility of drug effects was carried out as follow: He La cells treated
with CTR-17 or CTR-20 for 12 hours were w ashed twice with 1 × PBS and then releas ed into
pre-w armed complet emedium . Subsequentl y, c ell s were h arvested at scheduled time points to
ex amine their DNA profi les /cell c ycle positions by flow c ytometr y.
Immunofluorescencestai ning was car ried out as d escribed previousl y (Santi and Lee,
2011).Photograph y was carri ed out with a Carl Zeiss 510 Meta l aser s cann ing microscop e or an
Axioscope,and images were captur ed with LSM image examiner (Carl Zeiss, North York, ON,
Canada). For immunostaining , a background cont rol (without secondar y antibody) and bleed-
through controls (cells labeled with each fluorophore separatel y) were used to avoid inaccur ate
interpretation of dat a due to artifacts. A minimum of 10 fields per coverslip and 200 cells for
quantitative cell anal ysis were captur ed. Each ex periment was r epeat ed at l east twice. Western
blotting was carried out as described previousl y (Santi and Lee, 2010).
Molecular Operating Environment (MOE) (Chemi cal Computing Group Inc, Montreal, […]
The best docking pose was determined based on t he minimum free energy for binding. […]
hours or 24hours . The m itotic index was determined b y fluorescence micro scop y with counting […]

The subject of a further test is U87MG. Briefly: SRB cell viability/proliferation. Type of test: cell-based. The note with it: Homo sapiens, U-87 MG. The method, then:
(§1) and MCF10AT1 cells were cultured in Dulbecco's Modified Eagle's Medium/Ham's Nutrient Mixture F-12 (DME/F12) supplemented with 10% (volume/volume) FBS , 100 μg/ml streptom ycin and 100 units/ml penicillin, antim ycotic solution, 0.5 μg/ml hydrocortisone, 10 ng/ml human epiderm al growth factor (hEGF) and 5 μg/ml insulin, whereas MCF10CA1a cell line was cultured in DM EM supplemented with 10% FBS (volume/volume). KB-3- 1, parental human epidermoid carcinoma cell line and KB-C2, an isogenic MDR1- overexpressing drug-resistant cell line, were kindl y provided b y Dr. Amit K Tiwari, the Universit y of Toledo, OH.
(§2) Parental HEK293 and M RP1- overexpressing HEK293- MRP1 isogenic cel ls were kind gifts of Dr. Susan Cole (Queen’s Universit y, Kingston, Ontario, Canada). The pacl itaxel-resistant MDA-MB-231TaxR cell line was generated in house b y culturing MDA-MB-231 cells (purchased from ATCC and authen ticated ) in the gradual l y incr easi ng con centr ations of pacl itax el until the concentration reached to 100 nM. Cell line authentication was carried out by Genetica DNA Laboratories (Burlington, NC) using a short tandem repeat (STR) profiling method (March 2015; […]
(§3) Cell cycl e pro gr ession in the absence (sham) o r pr esence o f compound(s ) was determined with a Beckman Coulter Epics Elite FC 500 Flow C ytom eter as described previousl y (Romero

Another test concerns MDA-MB-468. Put plainly: SRB cell viability/proliferation. It counts as cell-based. Particulars: Homo sapiens. The method, then: as §1, §2, §3
Test [1] addresses tubulin, colchicine-binding pocket. Briefly: Competitive colchicine-tubulin binding assay (modified Dixon plot). The note with it: competitive with colchicine. The method, then:
To determine the mode of binding, a competitive binding assay was carried out as described previously. Briefly, tubulin (0.4 μmol/L) was incubated with different concentrations of CTR for 1 hour at 37 °C. Subsequently, colchicine was added to the reaction mixture containing CTR-tubulin complexes. […] Fluorescence was monitored using an automated plate reader (Synergy H4 Hybrid Multi-Mode Micro plate Reader) with an excitation wavelength at 360 nm and emission at 430 nm. […] The experiment was repeated four times.

Turning to `COc1ccccc1C(=O)/C=C/c1cc2ccccc2[nH]c1=O` [CTR-17, (E)-3-(3-(2-Methoxyphenyl)-3-oxoprop-1-enyl)quinolin-2(1H)-one], in the test with centrosomes, the distance between two centrosomes came out at 4.83 ± 0.36 µm; the “distance between two centrosomes shorter than sham control” value was ~ 35% and 35%.
As to `COc1ccc2[nH]c(=O)c(/C=C/C(=O)c3ccccc3OC)cc2c1` [CTR-20, (E)-6-Methoxy-3-(3-(2-methoxyphenyl)-3-oxoprop-1-enyl) quinolin-2(1H)-one], the IC50 with U87MG worked out at 1110 nM; in the test on MDA-MB-468, 120 nM. Besides, the “binding to the colchicine-binding pocket by Ki values, relative to CTR-17” value in test [1] is “approximately five times more strongly”.
